Measurements: patent US12077503B2, “Substituted cyclic amides and their use as herbicides” (FMC CORPORATION, priority 2015, dated 2024)

Columns and labels:
Type in all cases: in vivo
[1] = tested on: barnyardgrass (Echinochloa crus-galli); experiment: Test B flooded paddy test; settings: Flood, 0 to 100 scale where 0 is no effect and 100 is complete control, 13 to 15 d
Summary of the method: (§1)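 2-leaf plants; pots flooded 3 cm over soil; cpd added to paddy water; depth held; greenhouse 13–15 d; visual rating vs controls, 0 = no effect, 100 = complete control.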

[2] = tested on: ducksalad (Heteranthera limosa); experiment: Test B flooded paddy test; settings: Flood, 0 to 100 scale where 0 is no effect and 100 is complete control, 13 to 15 d
Summary of the method: as §1

rice (Oryra sativa) = experiment: Test B flooded paddy test; settings: Flood, 0 to 100 scale where 0 is no effect and 100 is complete control, 13 to 15 d
Summary of the method: as §1

[3] = tested on: sedge, umbrella (small-flower umbrella sedge, Cyperus difformis); experiment: Test B flooded paddy test; settings: Flood, 0 to 100 scale where 0 is no effect and 100 is complete control, 13 to 15 d
Summary of the method: as §1

[4] = tested on: ragweed (common ragweed, Ambrosia elatior); experiment: Test A postemergence
Summary of the method: (§2)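 Greenhouse, ~10 d after spray; visual injury vs untreated controls, 0 = no effect, 100 = complete control. Preemergence: directed soil spray over planted seeds. Postemergence: plants 2–10 cm, 1–2 leaf stage. Loam/sand blend. Compound in non-phytotoxic solvent with surfactant.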

[5] = tested on: pigweed (Amaranthus retroflexus); experiment: Test A postemergence
Summary of the method: as §2

[6] = tested on: wheat (Triticum aestivum); experiment: Test A postemergence
Summary of the method: as §2

[7] = tested on: giant foxtail (Setaria faberii); experiment: Test A postemergence
Summary of the method: as §2

[8] = tested on: Galium (catchweed bedstraw, Galium aparine); experiment: Test A postemergence
Summary of the method: as §2

corn (Zea mays) = experiment: Test A postemergence
Summary of the method: as §2

[9] = tested on: barnyardgrass (Echinochloa crus-galli); experiment: Test A postemergence
Summary of the method: as §2

Kochia (Kochia scoparia) [10] = experiment: Test A postemergence
Summary of the method: as §2

[11] = tested on: blackgrass (Alopecurus myosuroides); experiment: Test A postemergence
Summary of the method: as §2

[12] = tested on: ryegrass, Italian (Italian ryegrass, Lolium multiflorum); experiment: Test A postemergence
Summary of the method: as §2

[13] = tested on: ragweed (common ragweed, Ambrosia elatior); experiment: Test A preemergence; settings: for Plant response rating, Ragweed: 125 g ai/ha, preemergence, 0 to 100 scale (0 no effect, 100 complete control)
Summary of the method: as §2

[14] = tested on: pigweed (Amaranthus retroflexus); experiment: Test A preemergence; settings: for Plant response rating, Pigweed: 125 g ai/ha, preemergence, 0 to 100 scale (0 no effect, 100 complete control)
[15] = tested on: giant foxtail (Setaria faberii); experiment: Test A preemergence; settings: for Plant response rating, Foxtail, Giant: 125 g ai/ha, preemergence, 0 to 100 scale (0 no effect, 100 complete control)
Summary of the method: as §2

[16] = tested on: barnyardgrass (Echinochloa crus-galli); experiment: Test A preemergence; settings: for Plant response rating, Barnyardgrass: 125 g ai/ha, preemergence, 0 to 100 scale (0 no effect, 100 complete control)
Summary of the method: as §2

Kochia (Kochia scoparia) [17] = experiment: Test A preemergence; settings: for Plant response rating, Kochia: 125 g ai/ha, preemergence, 0 to 100 scale (0 no effect, 100 complete control)
Summary of the method: as §2

[18] = tested on: ryegrass, Italian (Italian ryegrass, Lolium multiflorum); experiment: Test A preemergence; settings: for Plant response rating, Ryegrass, Italian: 125 g ai/ha, preemergence, 0 to 100 scale (0 no effect, 100 complete control)
Summary of the method: as §2

[19] = 500 g ai/ha, postemergence, 0 to 100 scale, 0 no effect, 100 complete control
[20] = Postemergence, 125 g ai/ha, visual injury, 0 to 100 scale (0 no effect, 100 complete control), approx. 10 d
[21] = Preemergence, 500 g ai/ha, 0 is no effect, 100 is complete control
[22] = 125 g ai/ha, postemergence, visual injury rating on 0 to 100 scale (0 no effect, 100 complete control), approx. 10 d
[23] = Preemergence, 500 g ai/ha, visual injury approx. 10 d

O=C1NCC(c2ccccc2-c2ccccc2)C1C(=O)Nc1ccc(F)c(F)c1F (racemic) [Compound 382]
Plant response rating, Barnyardgrass ([1]; 250 g ai/ha): 0 | Plant response rating, Ducksalad ([2]; 250 g ai/ha): 0 | Plant response rating, Rice (rice (Oryra sativa); 250 g ai/ha): 0 | Plant response rating, Sedge, Umbrella ([3]; 250 g ai/ha): 0 | Plant response rating, Ragweed [4, 19]: 0 | Plant response rating, Ragweed [4, 20]: 0 | Plant response rating, Pigweed [5, 19]: 0 | Plant response rating, Pigweed [5, 20]: 0 | Plant response rating, Wheat [6, 19]: 0 | Plant response rating, Wheat [6, 20]: 0 | Plant response rating, Foxtail, Giant [7, 19]: 20 | Plant response rating, Foxtail, Giant [7, 20]: 0 | Plant response rating, Galium [8, 19]: 0 | Plant response rating, Galium [8, 20]: 0 | Plant response rating, Corn (corn (Zea mays); [19]): 0 | Plant response rating, Corn (corn (Zea mays); [20]): 0 | Plant response rating, Barnyardgrass [9, 19]: 20 | Plant response rating, Barnyardgrass [9, 20]: 0 | Plant response rating, Kochia (Kochia (Kochia scoparia) [10]; [19]): 0 | Plant response rating, Kochia (Kochia (Kochia scoparia) [10]; [20]): 0 | Plant response rating, Blackgrass [11, 19]: 0 | Plant response rating, Blackgrass [11, 20]: 0 | Plant response rating, Ryegrass, Italian [12, 19]: 0 | Plant response rating, Ryegrass, Italian [12, 20]: 0 | Plant response rating, Ragweed [13]: 0 | Ragweed plant response rating (0 to 100 scale) [13, 21]: 0 | Plant response rating, Pigweed [14]: 0 | Pigweed plant response rating (0 to 100 scale) [14, 21]: 0 | Plant response rating, Foxtail, Giant [15]: 0 | Foxtail, Giant plant response rating (0 to 100 scale) [15, 21]: 30 | Plant response rating, Barnyardgrass [16]: 0 | Barnyardgrass plant response rating (0 to 100 scale) [16, 21]: 50 | Plant response rating, Kochia (Kochia (Kochia scoparia) [17]): 0 | Kochia plant response rating (0 to 100 scale) (Kochia (Kochia scoparia) [17]; [21]): 0 | Plant response rating, Ryegrass, Italian [18]: 0 | Ryegrass, Italian plant response rating (0 to 100 scale) [18, 21]: 0

Cc1cccc(NC(=O)C2C(=O)NCC2c2ccc(F)c(F)c2)c1F (stereo not drawn) [Compound 409]
Plant response rating, Barnyardgrass ([1]; 500 g ai/ha): 40 | Plant response rating, Ducksalad ([2]; 500 g ai/ha): 40 | Plant response rating, Rice (rice (Oryra sativa); 500 g ai/ha): 30 | Plant response rating, Sedge, Umbrella ([3]; 500 g ai/ha): 0 | Ragweed plant response rating [4, 22]: 0 | Plant response rating, Ragweed [4, 19]: 0 | Pigweed plant response rating [5, 22]: 0 | Plant response rating, Pigweed [5, 19]: 20 | Wheat plant response rating [6, 22]: 0 | Plant response rating, Wheat [6, 19]: 0 | Foxtail, Giant plant response rating [7, 22]: 60 | Plant response rating, Foxtail, Giant [7, 19]: 80 | Galium plant response rating [8, 22]: 0 | Plant response rating, Galium [8, 19]: 0 | Corn plant response rating (corn (Zea mays); [22]): 0 | Plant response rating, Corn (corn (Zea mays); [19]): 0 | Barnyardgrass plant response rating [9, 22]: 60 | Plant response rating, Barnyardgrass [9, 19]: 70 | Kochia plant response rating (Kochia (Kochia scoparia) [10]; [22]): 0 | Plant response rating, Kochia (Kochia (Kochia scoparia) [10]; [19]): 30 | Blackgrass plant response rating [11, 22]: 10 | Plant response rating, Blackgrass [11, 19]: 20 | Ryegrass, Italian plant response rating [12, 22]: 0 | Plant response rating, Ryegrass, Italian [12, 19]: 0 | Plant response rating, Ragweed [13]: 0 | Ragweed plant response rating (0 to 100 scale, 0 is no effect, 100 is complete control) [13, 23]: 0 | Plant response rating, Pigweed [14]: 0 | Pigweed plant response rating (0 to 100 scale, 0 is no effect, 100 is complete control) [14, 23]: 10 | Plant response rating, Foxtail, Giant [15]: 80 | Foxtail, Giant plant response rating (0 to 100 scale, 0 is no effect, 100 is complete control) [15, 23]: 90 | Plant response rating, Barnyardgrass [16]: 70 | Barnyardgrass plant response rating (0 to 100 scale, 0 is no effect, 100 is complete control) [16, 23]: 80 | Plant response rating, Kochia (Kochia (Kochia scoparia) [17]): 0 | Kochia plant response rating (0 to 100 scale, 0 is no effect, 100 is complete control) (Kochia (Kochia scoparia) [17]; [23]): 0 | Plant response rating, Ryegrass, Italian [18]: 0 | Ryegrass, Italian plant response rating (0 to 100 scale, 0 is no effect, 100 is complete control) [18, 23]: 0
